Data: ChEMBL document CHEMBL5712083, “Regulation of Epstein-Barr Virus Life Cycle and Cell Proliferation by Histone H3K27 Methyltransferase EZH2 in Akata Cells” (mSphere, 2018)
Active and inactive are the calls of the source. The calls are words filed in the database; no cut-off is given here.

Key:
Format in all cases: cell-based
[1] = target: Histone-lysine N-methyltransferase EZH2 (Homo sapiens) (UniProt Q15910); test: Inhibition of EZH2 in human EBV-positive Akata cells assessed as effect on lytic gene gp350/200 at 1 uM for 3 days followed by addition of ant-IgG for lytic induction for 2 days by qRT-PCR analysis; settings: time 5.0 day
[2] = target: Histone-lysine N-methyltransferase EZH2 (Homo sapiens) (UniProt Q15910); test: Inhibition of EZH2 in human EBV-positive Akata cells assessed as effect on lytic gene LMP2 at 1 uM after 3 days by qRT-PCR analysis; settings: time 3.0 day
[3] = target: Histone-lysine N-methyltransferase EZH2 (Homo sapiens) (UniProt Q15910); test: Inhibition of EZH2 in human EBV-positive Akata cells assessed as effect on lytic gene EBER1 at 1 uM for 3 days followed by addition of ant-IgG for lytic induction for 2 days by qRT-PCR analysis; settings: time 5.0 day
[4] = target: Histone-lysine N-methyltransferase EZH2 (Homo sapiens) (UniProt Q15910); test: Inhibition of EZH2 (unknown origin) in Lymphoblastoid cells assessed as reduction in H3K27me3 levels at 1 uM after 3 days by Western blot analysis; settings: Lymphoblastoid cell, time 3.0 day
[5] = target: Histone-lysine N-methyltransferase EZH2 (Homo sapiens) (UniProt Q15910); test: Inhibition of EZH2 (unknown origin) in Lymphoblastoid cells assessed as effect on lytic gene LMP2 at 1 uM for 3 days followed by addition of TPA, A23187 and sodium butyrate for lytic induction for 2 days by qRT-PCR analysis; settings: Lymphoblastoid cell, time 5.0 day
[6] = target: Histone-lysine N-methyltransferase EZH2 (Homo sapiens) (UniProt Q15910); test: Inhibition of EZH2 (unknown origin) in Lymphoblastoid cells assessed as effect on lytic gene BZLF1 at 1 uM for 3 days followed by addition of TPA, A23187 and sodium butyrate for lytic induction for 2 days by qRT-PCR analysis; settings: Lymphoblastoid cell, time 5.0 day
[7] = target: Histone-lysine N-methyltransferase EZH2 (Homo sapiens) (UniProt Q15910); test: Inhibition of EZH2 in human EBV-positive Akata cells assessed as effect on lytic gene BZLF1 at 1 uM after 3 days by qRT-PCR analysis; settings: time 3.0 day
[8] = target: Histone-lysine N-methyltransferase EZH2 (Homo sapiens) (UniProt Q15910); test: Inhibition of EZH2 in human EBV-positive Akata cells assessed as effect on lytic gene EBNA2 at 1 uM after 3 days by qRT-PCR analysis; settings: time 3.0 day
[9] = target: Histone-lysine N-methyltransferase EZH2 (Homo sapiens) (UniProt Q15910); test: Inhibition of EZH2 (unknown origin) in Lymphoblastoid cells assessed as effect on lytic gene EBNA2 at 1 uM for 3 days followed by addition of TPA, A23187 and sodium butyrate for lytic induction for 2 days by qRT-PCR analysis; settings: Lymphoblastoid cell, time 5.0 day
[10] = target: Histone-lysine N-methyltransferase EZH2 (Homo sapiens) (UniProt Q15910); test: Inhibition of EZH2 in human EBV-positive Akata cells assessed as effect on lytic gene gp350/200 at 1 uM after 3 days by qRT-PCR analysis; settings: time 3.0 day
[11] = target: Histone-lysine N-methyltransferase EZH2 (Homo sapiens) (UniProt Q15910); test: Inhibition of EZH2 (unknown origin) in Lymphoblastoid cells assessed as effect on lytic gene EBER1 at 1 uM for 3 days followed by addition of TPA, A23187 and sodium butyrate for lytic induction for 2 days by qRT-PCR analysis; settings: Lymphoblastoid cell, time 5.0 day
[12] = target: Histone-lysine N-methyltransferase EZH2 (Homo sapiens) (UniProt Q15910); test: Inhibition of EZH2 (unknown origin) in Lymphoblastoid cells assessed as effect on lytic gene LMP1 at 1 uM for 3 days followed by addition of TPA, A23187 and sodium butyrate for lytic induction for 2 days by qRT-PCR analysis relative to control; settings: Lymphoblastoid cell, time 5.0 day
[13] = target: Histone-lysine N-methyltransferase EZH2 (Homo sapiens) (UniProt Q15910); test: Inhibition of EZH2 in human EBV-positive Akata cells assessed as reduction in H3K27me3 levels at 1 uM after 3 days by CHIP assay; settings: time 3.0 day
[14] = target: Histone-lysine N-methyltransferase EZH2 (Homo sapiens) (UniProt Q15910); test: Inhibition of EZH2 in human EBV-positive Akata cells assessed as effect on lytic gene BARTs at 1 uM for 3 days followed by addition of ant-IgG for lytic induction for 2 days by qRT-PCR analysis; settings: time 5.0 day
[15] = target: Histone-lysine N-methyltransferase EZH2 (Homo sapiens) (UniProt Q15910); test: Inhibition of EZH2 in human EBV-positive Akata cells assessed as effect on lytic gene EBNA2 at 1 uM for 3 days followed by addition of ant-IgG for lytic induction for 2 days by qRT-PCR analysis; settings: time 5.0 day
[16] = target: Histone-lysine N-methyltransferase EZH2 (Homo sapiens) (UniProt Q15910); test: Inhibition of EZH2 in human EBV-positive Akata cells assessed as effect on lytic gene EBNA1 at 1 uM after 3 days by qRT-PCR analysis; settings: time 3.0 day
[17] = target: Histone-lysine N-methyltransferase EZH2 (Homo sapiens) (UniProt Q15910); test: Inhibition of EZH2 in human EBV-positive Akata cells assessed as effect on lytic gene EBER1 at 1 uM after 3 days by qRT-PCR analysis; settings: time 3.0 day
[18] = target: Histone-lysine N-methyltransferase EZH2 (Homo sapiens) (UniProt Q15910); test: Inhibition of EZH2 in human EBV-positive Akata cells assessed as effect on lytic gene BZLF1 at 1 uM for 3 days followed by addition of ant-IgG for lytic induction for 2 days by qRT-PCR analysis; settings: time 5.0 day
[19] = target: Histone-lysine N-methyltransferase EZH2 (Homo sapiens) (UniProt Q15910); test: Inhibition of EZH2 in human EBV-positive Akata cells assessed as effect on lytic gene BARTs at 1 uM after 3 days by qRT-PCR analysis; settings: time 3.0 day
[20] = target: Histone-lysine N-methyltransferase EZH2 (Homo sapiens) (UniProt Q15910); test: Inhibition of EZH2 in human EBV-positive Akata cells assessed as increase in lytic gene LMP1 at 1 uM after 3 days by qRT-PCR analysis relative control; settings: time 3.0 day
[21] = target: Histone-lysine N-methyltransferase EZH2 (Homo sapiens) (UniProt Q15910); test: Inhibition of EZH2 (unknown origin) in Lymphoblastoid cells assessed as reduction in H3K27me3 levels at 1 uM after 3 days by CHIP assay; settings: Lymphoblastoid cell, time 3.0 day
[22] = target: Histone-lysine N-methyltransferase EZH2 (Homo sapiens) (UniProt Q15910); test: Inhibition of EZH2 (unknown origin) in Lymphoblastoid cells assessed as effect on lytic gene EBNA1 at 1 uM for 3 days followed by addition of TPA, A23187 and sodium butyrate for lytic induction for 2 days by qRT-PCR analysis; settings: Lymphoblastoid cell, time 5.0 day
[23] = target: Histone-lysine N-methyltransferase EZH2 (Homo sapiens) (UniProt Q15910); test: Inhibition of EZH2 in human EBV-positive Akata cells assessed as effect on lytic gene LMP2 at 1 uM for 3 days followed by addition of ant-IgG for lytic induction for 2 days by qRT-PCR analysis; settings: time 5.0 day
[24] = target: Histone-lysine N-methyltransferase EZH2 (Homo sapiens) (UniProt Q15910); test: Inhibition of EZH2 in human EBV-positive Akata cells assessed as effect on cell viability at 1 uM
[25] = target: Histone-lysine N-methyltransferase EZH2 (Homo sapiens) (UniProt Q15910); test: Inhibition of EZH2 in human EBV-positive Akata cells assessed as increase in lytic gene LMP1 at 1 uM for 3 days followed by addition of ant-IgG for lytic induction for 2 days by qRT-PCR analysis relative to control; settings: time 5.0 day
[26] = target: Histone-lysine N-methyltransferase EZH2 (Homo sapiens) (UniProt Q15910); test: Inhibition of EZH2 in human EBV-positive Akata cells assessed as effect on lytic gene EBNA1 at 1 uM for 3 days followed by addition of ant-IgG for lytic induction for 2 days by qRT-PCR analysis; settings: time 5.0 day
[27] = target: Histone-lysine N-methyltransferase EZH2 (Homo sapiens) (UniProt Q15910); test: Inhibition of EZH2 in human EBV-positive Akata cells assessed as reduction in H3K27me3 levels at 1 uM after 3 days by Western blot analysis; settings: time 3.0 day
[28] = target: Histone-lysine N-methyltransferase EZH2 (Homo sapiens) (UniProt Q15910); test: Inhibition of EZH2 (unknown origin) in Lymphoblastoid cells assessed as effect on lytic gene gp350/200 at 1 uM for 3 days followed by addition of TPA, A23187 and sodium butyrate for lytic induction for 2 days by qRT-PCR analysis; settings: Lymphoblastoid cell, time 5.0 day
[29] = target: Histone-lysine N-methyltransferase EZH2 (Homo sapiens) (UniProt Q15910); test: Inhibition of EZH2 (unknown origin) in Lymphoblastoid cells assessed as effect on lytic gene BARTs at 1 uM for 3 days followed by addition of TPA, A23187 and sodium butyrate for lytic induction for 2 days by qRT-PCR analysis; settings: Lymphoblastoid cell, time 5.0 day

Chain of Histone-lysine N-methyltransferase EZH2 (Homo sapiens) (Q15910 whole entry, looked up): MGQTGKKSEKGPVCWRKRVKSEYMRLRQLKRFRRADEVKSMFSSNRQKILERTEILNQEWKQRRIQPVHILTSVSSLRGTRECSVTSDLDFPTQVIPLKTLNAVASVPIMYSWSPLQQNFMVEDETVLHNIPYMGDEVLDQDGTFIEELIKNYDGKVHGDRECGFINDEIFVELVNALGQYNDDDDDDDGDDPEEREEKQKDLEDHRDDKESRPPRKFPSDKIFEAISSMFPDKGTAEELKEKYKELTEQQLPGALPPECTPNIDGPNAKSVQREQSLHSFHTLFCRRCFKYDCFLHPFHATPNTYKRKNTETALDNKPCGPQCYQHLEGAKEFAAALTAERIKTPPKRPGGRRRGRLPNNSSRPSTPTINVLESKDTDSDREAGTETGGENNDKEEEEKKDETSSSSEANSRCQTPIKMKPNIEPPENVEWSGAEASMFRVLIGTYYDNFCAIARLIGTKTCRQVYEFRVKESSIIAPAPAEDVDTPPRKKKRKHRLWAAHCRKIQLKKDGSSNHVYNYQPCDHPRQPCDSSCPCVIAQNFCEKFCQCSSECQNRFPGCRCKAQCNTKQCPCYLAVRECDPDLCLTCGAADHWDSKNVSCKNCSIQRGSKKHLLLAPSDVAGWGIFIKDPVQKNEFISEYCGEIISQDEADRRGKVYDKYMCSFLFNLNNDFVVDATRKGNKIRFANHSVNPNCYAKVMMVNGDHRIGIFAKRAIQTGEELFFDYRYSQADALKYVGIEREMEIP

inhibition [1]: inactive
inhibition [2]: inactive
inhibition [3]: inactive
inhibition [4]: Active
inhibition [5]: inactive
inhibition [6]: inactive
inhibition [7]: inactive
inhibition [8]: inactive
inhibition [9]: inactive
inhibition [10]: inactive
inhibition [11]: inactive
fold change (FC) [12]: 8.3
inhibition [13]: Active
inhibition [14]: inactive
inhibition [15]: inactive
inhibition [16]: inactive
inhibition [17]: inactive
inhibition [18]: inactive
inhibition [19]: inactive
fold change (FC) [20]: 2.6
inhibition [21]: Active
inhibition [22]: inactive
inhibition [23]: inactive
fold change (FC) [25]: 6.7
inhibition [26]: inactive
inhibition [27]: Active
inhibition [28]: inactive
inhibition [29]: inactive
Compound: CCCc1cc(C)[nH]c(=O)c1CNC(=O)c1cc(-c2ccnc(N3CCN(C)CC3)c2)cc2c1cnn2C(C)C
inhibition [24]: inactive
